Tested on: participants with cocaine use disorder
Assay: Medical safety session: subjective effects questionnaires after intranasal cocaine
Assay type: in vivo, human
Procedure: Participants completed one, single-blind medical safety session to ensure they could tolerate intranasal cocaine. Intranasal cocaine doses (i.e., 0 [placebo], 10, 20, 40 and 80 mg) were administered in ascending order. Placebo (i.e., 0 mg) was administered at 0900 hours. The subjective-effect questionnaires and cardiovascular measures described below were completed 30 minutes before placebo administration (i.e., 0830 hours), immediately following and at 15-minute intervals for 45 minutes. Subsequent cocaine administrations were separated by 45 minutes.

[1] = Cocaine 10 mg, Topiramate (0 mg/day) group
[2] = Cocaine 10 mg, Topiramate (50 mg/day) group
[3] = Cocaine 10 mg, Topiramate (100 mg/day) group
[4] = Cocaine 20 mg, Topiramate (0 mg/day) group
[5] = Cocaine 20 mg, Topiramate (50 mg/day) group
[6] = Cocaine 20 mg, Topiramate (100 mg/day) group

COC(=O)[C@H]1[C@@H](OC(=O)c2ccccc2)C[C@@H]2CC[C@H]1N2C [Cocaine, cocaine]
Adjective Rating Scales Sedative, mean peak effect [1]: 2.0
Adjective Rating Scales Stimulant, mean peak effect [1]: 6.1
Drug-Effect Questionnaire Active-Alert-Energetic, mean peak effect [1]: 17.0
Drug-Effect Questionnaire Any Effect, mean peak effect [1]: 21.5
Drug-Effect Questionnaire Bad Effects, mean peak effect [1]: 4.4
Drug-Effect Questionnaire Euphoric, mean peak effect [1]: 10.1
Drug-Effect Questionnaire Good Effects, mean peak effect [1]: 21.5
Drug-Effect Questionnaire High, mean peak effect [1]: 17.3
Drug-Effect Questionnaire Irregular Heart Beat, mean peak effect [1]: 7.0
Drug-Effect Questionnaire Like Drug, mean peak effect [1]: 25.2
Drug-Effect Questionnaire Nausea-Queasy-Sick, mean peak effect [1]: 3.3
Drug-Effect Questionnaire Nervous-Anxious, mean peak effect [1]: 5.1
Drug-Effect Questionnaire Performance Impaired, mean peak effect [1]: 4.9
Drug-Effect Questionnaire Performance Improved, mean peak effect [1]: 10.7
Drug-Effect Questionnaire Restless, mean peak effect [1]: 7.9
Drug-Effect Questionnaire Rush, mean peak effect [1]: 15.5
Drug-Effect Questionnaire Shaky-Jittery, mean peak effect [1]: 3.9
Drug-Effect Questionnaire Sluggish-Fatigued-Lazy, mean peak effect [1]: 8.1
Drug-Effect Questionnaire Stimulated, mean peak effect [1]: 13.8
Drug-Effect Questionnaire Talkative-Friendly, mean peak effect [1]: 17.0
Drug-Effect Questionnaire Willing to Pay For, mean peak effect [1]: 20.6
Drug-Effect Questionnaire Willing to Take Again, mean peak effect [1]: 26.3
Adjective Rating Scales Sedative, mean peak effect [2]: 3.9
Adjective Rating Scales Stimulant, mean peak effect [2]: 8.7
Drug-Effect Questionnaire Active-Alert-Energetic, mean peak effect [2]: 11.2
Drug-Effect Questionnaire Any Effect, mean peak effect [2]: 7.0
Drug-Effect Questionnaire Bad Effects, mean peak effect [2]: 1.2
Drug-Effect Questionnaire Euphoric, mean peak effect [2]: 3.4
Drug-Effect Questionnaire Good Effects, mean peak effect [2]: 6.4
Drug-Effect Questionnaire High, mean peak effect [2]: 6.1
Drug-Effect Questionnaire Irregular Heart Beat, mean peak effect [2]: 0.6
Drug-Effect Questionnaire Like Drug, mean peak effect [2]: 9.2
Drug-Effect Questionnaire Nausea-Queasy-Sick, mean peak effect [2]: 1.2
Drug-Effect Questionnaire Nervous-Anxious, mean peak effect [2]: 0.3
Drug-Effect Questionnaire Performance Impaired, mean peak effect [2]: 0.9
Drug-Effect Questionnaire Performance Improved, mean peak effect [2]: 3.3
Drug-Effect Questionnaire Restless, mean peak effect [2]: 1.2
Drug-Effect Questionnaire Rush, mean peak effect [2]: 5.9
Drug-Effect Questionnaire Shaky-Jittery, mean peak effect [2]: 1.4
Drug-Effect Questionnaire Sluggish-Fatigued-Lazy, mean peak effect [2]: 5.4
Drug-Effect Questionnaire Stimulated, mean peak effect [2]: 11.9
Drug-Effect Questionnaire Talkative-Friendly, mean peak effect [2]: 4.7
Drug-Effect Questionnaire Willing to Pay For, mean peak effect [2]: 5.4
Drug-Effect Questionnaire Willing to Take Again, mean peak effect [2]: 12.0
Adjective Rating Scales Sedative, mean peak effect [3]: 3.1
Adjective Rating Scales Stimulant, mean peak effect [3]: 10.6
Drug-Effect Questionnaire Active-Alert-Energetic, mean peak effect [3]: 6.4
Drug-Effect Questionnaire Any Effect, mean peak effect [3]: 10.7
Drug-Effect Questionnaire Bad Effects, mean peak effect [3]: 0.2
Drug-Effect Questionnaire Euphoric, mean peak effect [3]: 5.6
Drug-Effect Questionnaire Good Effects, mean peak effect [3]: 14.5
Drug-Effect Questionnaire High, mean peak effect [3]: 7.4
Drug-Effect Questionnaire Irregular Heart Beat, mean peak effect [3]: 2.8
Drug-Effect Questionnaire Like Drug, mean peak effect [3]: 10.1
Drug-Effect Questionnaire Nausea-Queasy-Sick, mean peak effect [3]: 6.8
Drug-Effect Questionnaire Nervous-Anxious, mean peak effect [3]: 0.2
Drug-Effect Questionnaire Performance Impaired, mean peak effect [3]: 0.2
Drug-Effect Questionnaire Performance Improved, mean peak effect [3]: 2.1
Drug-Effect Questionnaire Restless, mean peak effect [3]: 0.7
Drug-Effect Questionnaire Rush, mean peak effect [3]: 6.9
Drug-Effect Questionnaire Shaky-Jittery, mean peak effect [3]: 0.3
Drug-Effect Questionnaire Sluggish-Fatigued-Lazy, mean peak effect [3]: 0.5
Drug-Effect Questionnaire Stimulated, mean peak effect [3]: 7.7
Drug-Effect Questionnaire Talkative-Friendly, mean peak effect [3]: 7.8
Drug-Effect Questionnaire Willing to Pay For, mean peak effect [3]: 8.6
Drug-Effect Questionnaire Willing to Take Again, mean peak effect [3]: 12.6
Adjective Rating Scales Sedative, mean peak effect [4]: 4.6
Adjective Rating Scales Stimulant, mean peak effect [4]: 8.4
Drug-Effect Questionnaire Active-Alert-Energetic, mean peak effect [4]: 23.5
Drug-Effect Questionnaire Any Effect, mean peak effect [4]: 28.6
Drug-Effect Questionnaire Bad Effects, mean peak effect [4]: 4.5
Drug-Effect Questionnaire Euphoric, mean peak effect [4]: 11.5
Drug-Effect Questionnaire Good Effects, mean peak effect [4]: 26.1
Drug-Effect Questionnaire High, mean peak effect [4]: 20.0
Drug-Effect Questionnaire Irregular Heart Beat, mean peak effect [4]: 8.8
Drug-Effect Questionnaire Like Drug, mean peak effect [4]: 27.8
Drug-Effect Questionnaire Nausea-Queasy-Sick, mean peak effect [4]: 2.9
Drug-Effect Questionnaire Nervous-Anxious, mean peak effect [4]: 8.5
Drug-Effect Questionnaire Performance Impaired, mean peak effect [4]: 10.4
Drug-Effect Questionnaire Performance Improved, mean peak effect [4]: 12.0
Drug-Effect Questionnaire Restless, mean peak effect [4]: 8.9
Drug-Effect Questionnaire Rush, mean peak effect [4]: 19.4
Drug-Effect Questionnaire Shaky-Jittery, mean peak effect [4]: 8.8
Drug-Effect Questionnaire Sluggish-Fatigued-Lazy, mean peak effect [4]: 6.8
Drug-Effect Questionnaire Stimulated, mean peak effect [4]: 18.7
Drug-Effect Questionnaire Talkative-Friendly, mean peak effect [4]: 18.6
Drug-Effect Questionnaire Willing to Pay For, mean peak effect [4]: 24.9
Drug-Effect Questionnaire Willing to Take Again, mean peak effect [4]: 32.9
Adjective Rating Scales Sedative, mean peak effect [5]: 2.8
Adjective Rating Scales Stimulant, mean peak effect [5]: 8.6
Drug-Effect Questionnaire Active-Alert-Energetic, mean peak effect [5]: 12.8
Drug-Effect Questionnaire Any Effect, mean peak effect [5]: 9.9
Drug-Effect Questionnaire Bad Effects, mean peak effect [5]: 0.3
Drug-Effect Questionnaire Euphoric, mean peak effect [5]: 12.4
Drug-Effect Questionnaire Good Effects, mean peak effect [5]: 11.2
Drug-Effect Questionnaire High, mean peak effect [5]: 13.1
Drug-Effect Questionnaire Irregular Heart Beat, mean peak effect [5]: 0.6
Drug-Effect Questionnaire Like Drug, mean peak effect [5]: 14.6
Drug-Effect Questionnaire Nausea-Queasy-Sick, mean peak effect [5]: 2.2
Drug-Effect Questionnaire Nervous-Anxious, mean peak effect [5]: 0.0
Drug-Effect Questionnaire Performance Impaired, mean peak effect [5]: 2.4
Drug-Effect Questionnaire Performance Improved, mean peak effect [5]: 5.4
Drug-Effect Questionnaire Restless, mean peak effect [5]: 0.7
Drug-Effect Questionnaire Rush, mean peak effect [5]: 14.1
Drug-Effect Questionnaire Shaky-Jittery, mean peak effect [5]: 1.1
Drug-Effect Questionnaire Sluggish-Fatigued-Lazy, mean peak effect [5]: 0.8
Drug-Effect Questionnaire Stimulated, mean peak effect [5]: 15.6
Drug-Effect Questionnaire Talkative-Friendly, mean peak effect [5]: 10.2
Drug-Effect Questionnaire Willing to Pay For, mean peak effect [5]: 7.6
Drug-Effect Questionnaire Willing to Take Again, mean peak effect [5]: 10.2
Adjective Rating Scales Sedative, mean peak effect [6]: 3.7
Adjective Rating Scales Stimulant, mean peak effect [6]: 11.1
Drug-Effect Questionnaire Active-Alert-Energetic, mean peak effect [6]: 11.0
Drug-Effect Questionnaire Any Effect, mean peak effect [6]: 11.7
Drug-Effect Questionnaire Bad Effects, mean peak effect [6]: 2.2
Drug-Effect Questionnaire Euphoric, mean peak effect [6]: 5.7
Drug-Effect Questionnaire Good Effects, mean peak effect [6]: 10.2
Drug-Effect Questionnaire High, mean peak effect [6]: 12.8
Drug-Effect Questionnaire Irregular Heart Beat, mean peak effect [6]: 3.2
Drug-Effect Questionnaire Like Drug, mean peak effect [6]: 14.9
Drug-Effect Questionnaire Nausea-Queasy-Sick, mean peak effect [6]: 10.6
Drug-Effect Questionnaire Nervous-Anxious, mean peak effect [6]: 6.6
Drug-Effect Questionnaire Performance Impaired, mean peak effect [6]: 5.5
Drug-Effect Questionnaire Performance Improved, mean peak effect [6]: 4.0
Drug-Effect Questionnaire Restless, mean peak effect [6]: 0.2
Drug-Effect Questionnaire Rush, mean peak effect [6]: 12.4
Drug-Effect Questionnaire Shaky-Jittery, mean peak effect [6]: 3.1
Drug-Effect Questionnaire Sluggish-Fatigued-Lazy, mean peak effect [6]: 1.1
Drug-Effect Questionnaire Stimulated, mean peak effect [6]: 10.5
Drug-Effect Questionnaire Talkative-Friendly, mean peak effect [6]: 11.2
Drug-Effect Questionnaire Willing to Pay For, mean peak effect [6]: 11.7
Drug-Effect Questionnaire Willing to Take Again, mean peak effect [6]: 11.6
